{
  "source": "patent US20040009921A1",
  "about": "“Methods and compositions for the treatment of cancer” (Allergan, Inc., priority 2002, published 2004)",
  "key": {"[1]": {"molecular_target": "T1, RXRα (Homo sapiens, UniProt P19793)", "T1 construct": "The RXRα coding region was amplified from this clone by PCR; expressed in transfected cells; host or cells: HEK293 (transient; CAT transfected with RXRα)", "T1 sequence (P19793 1-462)": "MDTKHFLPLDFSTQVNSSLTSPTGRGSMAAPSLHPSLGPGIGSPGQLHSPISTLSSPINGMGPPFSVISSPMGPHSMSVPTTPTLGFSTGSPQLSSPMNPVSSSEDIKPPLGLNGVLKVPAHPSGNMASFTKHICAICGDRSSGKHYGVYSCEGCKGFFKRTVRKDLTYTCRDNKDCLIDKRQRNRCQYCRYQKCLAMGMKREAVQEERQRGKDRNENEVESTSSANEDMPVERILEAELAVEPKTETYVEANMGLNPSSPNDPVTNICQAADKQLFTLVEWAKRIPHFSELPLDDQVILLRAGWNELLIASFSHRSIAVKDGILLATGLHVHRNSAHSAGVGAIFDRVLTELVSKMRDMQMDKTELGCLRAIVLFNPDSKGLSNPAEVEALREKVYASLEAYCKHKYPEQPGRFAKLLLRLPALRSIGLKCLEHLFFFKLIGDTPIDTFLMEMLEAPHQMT", "assay": "Western blotting of RXRα protein in HEK293 cells and stable lines", "format": "cell-based", "description": "(§1) (A) Western blotting analysis of HEK293 cells transfected with a combination of expression vectors for LacZ (2 μg), V5-tagged β-catenin(4 μg), and Flag-tagged RXRα (2 μg) as indicated below the gels. […] RXRα protein was measured using an HRP-conjugated mouse monoclonal antibody against the Flag tag. (B) Western blotting analysis of stable cell line RBC that overexpresses both β-catenin and RXRα. […] (C) Western blotting analysis of stable cell line CAT that overexpresses only β-catenin. […] Endogenous and overexpressed β-catenin were detected using a rabbit polyclonal antibody as indicated by “Total” whereas overexpressed β-catenin was analyzed using a mouse monoclonal antibody against the V5 tag. Endogenous and overexpressed RXRα were detected by a rabbit polyclonal antibody against RXRα, whereas overexpressed RXRα was determined by an HRP-conjugated mouse monoclonal antibody against the Flag tag. (D) Western blotting analysis of HEK293 cells transfected with a fixed amount of β-catenin (4 μg) plus an increasing amount of RXRα as indicated at the top. […] (E) Western blotting analysis of HEK293, CV-1, and Hela cells transfected with 2 μg of RXRα and 4 μg of wild type or mutant β-catenin. α. […] (F) Northern blotting analysis of RBC cells using β-catenin as a probe.\n(§2) FIG. 4 Receptor and ligand specificity in degradation of β-catenin by retinoid receptors. HEK293 cells transfected with expression vectors for β-catenin (4 μg) and RXRs (2 μg) or RARs (2 μg) and treated with ligands at concentrations indicated at the top of each gel. Protein levels were detected by Western blotting as shown in this figure. β-catenin and RARs were detected by HRP-conjugated antibodies against their V5 tag. RXRs were detected by HRP-conjugated antibodies against their Flag tag. […] In this experiment, the amount of expression vectors for RXRα and RARs used in transfection was 1 μg.\n(§3) HEK293 cells were seeded at a density of […] per dish were seeded into 100-mm dishes and cultured overnight in DMEM containing 10% FBS. Cells were transfected with 1-4 μg of various cDNA or parental expression vectors (8 μg of DNA in total) using Lipofectamine®. Five hours after transfection, cells were fed with fresh culture media DMEM containing 10% charcoal-treated FBS with vehicle DMSO or retinoids prepared in DMSO. After a given time of treatment, cells were harvested and lysed in a buffer containing 1% Nonidet® P-40, 30 mM Tris-HCl (pH7.4), 0.5 mM EDTA (pH 8.0), 150 mM NaCl, 10% glycerol, 1 mM sodium orthovanadate, 40 mM NaF, 0.5 mM phenylmethylsulfonyl fluoride (PMSF) and a cocktail of protease inhibitors (Merck).\n(§4) Total cell lysates were homogenized by passing through a QIAshredder® (Qiagen) and cleared from insoluble materials by centriftigation at 12,000 g. Protein concentration was determined using a Bradford total protein assay kit (Bio-Rad). Total cell lysates were electrophoresed using a 4-12% SDS-PAGE gradient gel and transferred to either nitrocellulose or PVDF filter membranes. The membranes were blocked with 10% non-fat milk reconstituted from dairy milk powder in phosphate-buffered saline (PBS) containing 0.1% Tween®-20 (PBST). The membranes were incubated with primary antibodies at room temperature for 2 hours or at 4° C. for overnight. After the removal of unbound antibodies, membranes were incubated with horseradish peroxidase-conjugated secondary antibodies for one hour at room temperature and washed five times with PBST."}, "[2]": {"tested_on": "β-catenin", "assay": "Western blotting of β-catenin protein in HEK293 cells and stable lines RBC, CAT, RmBC", "format": "cell-based, human", "description": "as §1, §2, §3, §4"}, "[3]": {"conditions": "HEK293 co-expressing RXRα with RARα"}, "[4]": {"conditions": "HEK293 transfected with β-catenin and RXRα, 17 hours"}},
  "data": [
    {"smiles": "CC(/C=C/[C@@H]1C[C@]1(C)c1ccc2c(c1)C(C)(C)CCC2(C)C)=C\\C(=O)O", "note": "[AGN 4204]", "values": [
      {"measurement": "endogenous RXRα protein", "setting": "[1]; CAT cells, 0.1 μM, 17 hours", "result": "a decrease of the endogenous RXRα was observed"},
      {"measurement": "amount of RXRα protein", "setting": "[1]; HEK293, independent of β-catenin, 0.1 μM", "result": "a reduction inn the amount of RXRα"},
      {"measurement": "degradation of RXRα", "setting": "[1]; [3]", "result": "RXR-ligand-dependent degradation"},
      {"measurement": "concentration effective in inducing degradation of RXRα", "setting": "[1]; [4]", "result": 1, "unit": "nM"},
      {"measurement": "time at which degradation of RXRα was first detected", "setting": "[1]; RBC cells, 0.1 μM", "result": 1, "unit": "h"},
      {"measurement": "β-catenin protein", "setting": "[2]; CAT cells transfected with RXRα expression vector, 0.1 μM, 17 hours", "result": "significantly reduced"},
      {"measurement": "β-catenin protein", "setting": "[2]; CAT cells, low endogenous RXRα, 0.1 μM, 17 hours", "result": "did not cause a significant decrease of β-catenin"},
      {"measurement": "β-catenin protein", "setting": "[2]; HEK293, fixed β-catenin plus increasing amounts of RXRα vector, 0.1 μM, 17 hours", "result": "a proportional decrease in β-catenin"},
      {"measurement": "intracellular β-catenin protein levels", "setting": "[2]; HEK293, β-catenin alone overexpressed, 0.1 μM, 6 or 15 hours", "result": "no significant effects"},
      {"measurement": "degradation of β-catenin", "setting": "[2]; [3]", "result": "RXR-ligand-dependent degradation"},
      {"measurement": "amounts of β-catenin protein", "setting": "[2]; HEK293 co-overexpressing β-catenin and RXR, 0.1 μM, 6 or 15 hours", "result": "a reduction in the amounts of β-catenin protein"},
      {"measurement": "degradation of β-catenin", "setting": "[2]; HEK293 overexpressing RARβ or RARγ", "result": "did not result in degradation of β-catenin"},
      {"measurement": "concentration effective in inducing degradation of β-catenin", "setting": "[2]; [4]", "result": 1, "unit": "nM"},
      {"measurement": "degradation of β-catenin through RXRγ", "setting": "[2]; HEK293 transfected with β-catenin and RXRγ", "result": "able to stimulated the degradation of β-catenin through RXRγ"},
      {"measurement": "AGN 4204-induced β-catenin degradation mediated by RXRα deletion mutants", "setting": "[2]; HEK293 with β-catenin and RXRα mutants, 0.1 μM, 17 hours", "result": "significantly reduced"},
      {"measurement": "potency in inducing β-catenin degradation", "setting": "[2]; HEK293 with β-catenin and RXRα, FIG. 4A", "result": "high potency"},
      {"measurement": "time at which beginning of β-catenin degradation was observed", "setting": "[2]; RBC cells, 0.1 μM", "result": 6, "unit": "h"},
      {"measurement": "degradation of ΔNβ-catenin protein", "setting": "[2]; transiently transfected HEK293 and stable line RmBC (ΔNβ-catenin and RXRα), 0.1 μM", "result": "degradation of αNβ-catenin was observed"}
    ]}
  ]
}
